Where two headings read alike, the source gives them in different places.
Experiments:
Assay type in all cases: in vivo
[1] = system: Mycosphaerella graminicola; Anamorph: Septoria tritici; assay: Leaf Blotch of Wheat (SEPTTR) disease control; details: for pest or weed control at 100 ppm / pest or weed control at 121.5 g/ha: Zymoseptoria tritici
Procedure, shortened: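 Wheat seedlings (Yuma, first leaf emerged) sprayed to run-off with compound in acetone/water with 110 ppm Triton X-100, or track-sprayed as EC with 0.1% Trycol 5941. Septoria tritici spores inoculated before or after treatment. Dew chambers, then 20 °C greenhouse. Percent disease control derived from severity (0–100%) relative to untreated plants.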

Venturia inaequalis = assay: Apple Scab (VENTIN) disease control; details: 1 Day Protectant; for pest or weed control at 100 ppm: Venturia inaequalis, topical, 24 h, read-out: Disease Control VENTIN 1 DP
Description: Technical grades of materials were dissolved in acetone, which were then mixed with nine volumes of water containing 110 ppm Triton X-100. The fungicide solutions were applied onto wheat seedlings using an automated booth sprayer to run-off. All sprayed plants were allowed to air dry prior to further handling. All fungicides were evaluated using the aforementioned method for their activity vs. all target diseases. Wheat leaf blotch and brown rust activity were also evaluated using track spray applications, in which case the fungicides were formulated as EC formulations, containing 0.1% Trycol 5941 in the spray solutions. Wheat plants (variety Yuma) were grown from seed in a greenhouse in 50% mineral soil/50% soil-less Metro mix until the first leaf was fully emerged, with 7-10 seedlings per pot. These plants were inoculated with an aqueous spore suspension of Septoria tritici either prior to or after fungicide treatments. After inoculation the plants were kept in 100% relative humidity (one day in a dark dew chamber followed by two to three days in a lighted dew chamber at 20° C.) to permit spores to germinate and infect the leaf. The plants were then transferred to a greenhouse set at 20° C. for disease to develop. When disease symptoms were fully expressed on the 1st leaves of untreated plants, infection levels were assessed on a scale of 0 to 100 percent disease severity. Percent disease control was calculated using the ratio of disease severity on treated plants relative to untreated plants. Apple seedlings (variety McIntosh) were grown in soil-less Metro mix, with one plant per pot. Seedlings with two expanding young leaves at the top (older leaves at bottom of the plants were trimmed) were used in the test. Plants were inoculated with a spore suspension of Venturia inaequalis 24 hr after fungicide treatment and kept in a 22° C. dew chamber with 100% RH for 48 hr, and then moved to a greenhouse set at 20° C. for disease to develop. Fungicide formulation, application and disease assessment on the sprayed leaves followed the procedures as described in the Example A.

[2] = system: Puccinia triticina; Synonym: Puccinia recondite f. Sp. Tritici; assay: Wheat Brown Rust (PUCCRT) disease control; details: for pest or weed control at 100 ppm / pest or weed control at 121.5 g/ha: Puccinia triticina, topical
Procedure, shortened: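 Brown rust on first-leaf Yuma wheat: spore inoculation before or after spray application (acetone/Triton X-100 solution, or EC with Trycol in track spray), overnight 100% RH at 22 °C, disease developed at 24 °C. Severity scored 0–100% and converted to percent control against untreated.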

Rhyncosporium secalis = assay: Barley Scald (RHYNSE) disease control; details: 1 Day Protectant; for pest or weed control at 100 ppm: Hordeum vulgare, 24 h, read-out: Disease Control RHYNSE 1 DP
Description: Technical grades of materials were dissolved in acetone, which were then mixed with nine volumes of water containing 110 ppm Triton X-100. The fungicide solutions were applied onto wheat seedlings using an automated booth sprayer to run-off. All sprayed plants were allowed to air dry prior to further handling. All fungicides were evaluated using the aforementioned method for their activity vs. all target diseases. Wheat leaf blotch and brown rust activity were also evaluated using track spray applications, in which case the fungicides were formulated as EC formulations, containing 0.1% Trycol 5941 in the spray solutions. Wheat plants (variety Yuma) were grown from seed in a greenhouse in 50% mineral soil/50% soil-less Metro mix until the first leaf was fully emerged, with 7-10 seedlings per pot. These plants were inoculated with an aqueous spore suspension of Septoria tritici either prior to or after fungicide treatments. After inoculation the plants were kept in 100% relative humidity (one day in a dark dew chamber followed by two to three days in a lighted dew chamber at 20° C.) to permit spores to germinate and infect the leaf. The plants were then transferred to a greenhouse set at 20° C. for disease to develop. When disease symptoms were fully expressed on the 1st leaves of untreated plants, infection levels were assessed on a scale of 0 to 100 percent disease severity. Percent disease control was calculated using the ratio of disease severity on treated plants relative to untreated plants. Barley seedlings (variety Harrington) were propagated in soil-less Metro mix, with each pot having 8 to 12 plants, and used in the test when first leaf was fully emerged. Test plants were inoculated by an aqueous spore suspension of Rhyncosporium secalis 24 hr after fungicide treatments. After inoculation the plants were kept in a dew room at 20° C. with 100% relative humidity for 48 hr. The plants were then transferred to a greenhouse set at 20° C. for disease to develop. Fungicide formulation, application and disease assessment on the sprayed leaves followed the procedures as described in the Example A.

[3] = 24 h, 1 Day Protectant, rate 100 ppm, read-out: SEPTTR 1 DP disease control
[4] = 24 h, 1 Day Protectant, rate 121.5 g/H, read-out: SEPTTR 1 DP disease control
[5] = 72 h, 3 Day Curative, rate 100 ppm, read-out: SEPTTR 3 DC disease control
[6] = 72 h, 3 Day Curative, rate 121.5 g/H, read-out: SEPTTR 3 DC disease control
[7] = 24 h, 1 Day Protectant, rate 100 ppm, read-out: PUCCRT 1 DP disease control
[8] = 24 h, 1 Day Protectant, rate 121.5 g/H, read-out: PUCCRT 1 DP disease control
[9] = 72 h, 3 Day Curative, rate 100 ppm, read-out: PUCCRT 3 DC disease control
[10] = 72 h, 3 Day Curative, rate 121.5 g/H, read-out: PUCCRT 3 DC disease control
[11] = 1 Day Protectant, rate 121.5 g/H

SMILES | pest or weed control at 100 ppm [1, 3] | pest or weed control at 121.5 g/ha [1, 4] | pest or weed control at 100 ppm [1, 5] | pest or weed control at 121.5 g/ha [1, 6] | pest or weed control at 100 ppm (Venturia inaequalis) | pest or weed control at 100 ppm [2, 7] | pest or weed control at 121.5 g/ha [2, 8] | pest or weed control at 100 ppm [2, 9] | pest or weed control at 121.5 g/ha [2, 10] | pest or weed control at 100 ppm (Rhyncosporium secalis) | SEPTTR 1 DP disease control ([1]; 1 Day Protectant, rate 100 ppm) | SEPTTR 1 DP disease control [1, 11] | SEPTTR 3 DC disease control ([1]; 3 Day Curative, rate 100 ppm) | SEPTTR 3 DC disease control ([1]; 3 Day Curative, rate 121.5 g/H) | Disease Control VENTIN 1 DP (Venturia inaequalis; 100 ppm) | PUCCRT 1 DP disease control ([2]; 1 Day Protectant, rate 100 ppm) | PUCCRT 1 DP disease control [2, 11] | PUCCRT 3 DC disease control ([2]; 3 Day Curative, rate 100 ppm) | PUCCRT 3 DC disease control ([2]; 3 Day Curative, rate 121.5 g/H) | Disease Control RHYNSE 1 DP (Rhyncosporium secalis; 100 ppm)
COc1ccnc(C(=O)N[C@H]2CCC[C@H](Cc3ccccc3)[C@@H](OC3CCCC3)[C@H](C)OC2=O)c1OCOC(C)=O [Compound F110] | 80 to 100% | 80 to 100% | 80 to 100% | 80 to 100% | 0 to 80% | 80 to 100% | 80 to 100% | 80 to 100% | 80 to 100% | 80 to 100% | – | – | – | – | – | – | – | – | – | –
CCOCC(=O)OCOc1c(OC)ccnc1C(=O)N[C@H]1CCC[C@H](Cc2ccc(F)cc2)[C@@H](OCC2CC2)[C@H](C)OC1=O [Compound F164] | 80 to 100% | 80 to 100% | 80 to 100% | 80 to 100% | 80 to 100% | 80 to 100% | 80 to 100% | 80 to 100% | 0 to 80% | 80 to 100% | – | – | – | – | – | – | – | – | – | –
COc1ccnc(C(=O)N[C@H]2CCC[C@H](Cc3ccc(F)cc3F)[C@@H](OCC(C)C)[C@H](C)OC2=O)c1OCOC(C)=O [Compound F145] | – | 80 to 100% | – | 80 to 100% | 80 to 100% | – | 80 to 100% | – | 80 to 100% | 80 to 100% | – | – | – | – | – | – | – | – | – | –
CCCO[C@@H]1[C@@H](Cc2ccccc2)CCC[C@H](NC(=O)c2nccc(OC)c2OCOC(=O)COCC)C(=O)O[C@H]1C [Compound F174] | 80 to 100% | 80 to 100% | 80 to 100% | 80 to 100% | 80 to 100% | 80 to 100% | 80 to 100% | 80 to 100% | 80 to 100% | 80 to 100% | – | – | – | – | – | – | – | – | – | –
COc1ccnc(C(=O)N[C@H]2CCC[C@H](Cc3ccccc3)[C@@H](OCC(C)C)[C@H](C)OC2=O)c1OC(C)=O [Compound F70] | 80 to 100% | 80 to 100% | 80 to 100% | 80 to 100% | 0 to 80% | 80 to 100% | 80 to 100% | 80 to 100% | 80 to 100% | 80 to 100% | – | – | – | – | – | – | – | – | – | –
COc1ccnc(C(=O)N[C@H]2CCC[C@H](Cc3ccc(F)cc3)[C@@H](OCC3CC3)[C@H](C)OC2=O)c1OCOC(C)=O [Compound F98] | – | – | – | – | – | – | – | – | – | – | A (80-100) | A (80-100) | A (80-100) | A (80-100) | B (More than 0-Less than 80) | A (80-100) | A (80-100) | A (80-100) | A (80-100) | A (80-100)
CCOCC(=O)OCOc1c(OC)ccnc1C(=O)N[C@H]1CCC[C@H](Cc2ccccc2)[C@@H](OCC(C)C)[C@H](C)OC1=O [Compound F172] | 80 to 100% | 80 to 100% | 80 to 100% | 80 to 100% | 0 to 80% | 80 to 100% | 80 to 100% | 80 to 100% | 80 to 100% | 80 to 100% | – | – | – | – | – | – | – | – | – | –
CC[C@H]1CCC[C@H](NC(=O)c2nccc(OC)c2OC(C)=O)C(=O)O[C@@H](C)[C@@H]1Oc1ccccc1 [Compound F81] | 80 to 100% | 80 to 100% | 80 to 100% | 80 to 100% | 0 to 80% | 80 to 100% | 80 to 100% | 80 to 100% | 80 to 100% | 80 to 100% | – | – | – | – | – | – | – | – | – | –

Reference: patent US9265253B2, “Use of macrocyclic picolinamides as fungicides” (DOW AGROSCIENCES LLC, priority 2013, dated 2016)
